Laboratory results from PMC3826719, “Impact of Polymorphic Variants on the Molecular Pharmacology of the Two-Agonist Conformations of the Human β1-Adrenoceptor” (PLoS ONE, 2013).
Read-outs that look alike come from different tables or passages of the source.

What was measured:
[1] = target: T1, human β1-adrenoceptor polymorphic variant Ser49/Arg389 (Homo sapiens, UniProt P08588, G389R); test: cell-based; details: Log KD
Procedure: (§3) The cells were washed twice with 200 µl 4°C phosphate buffered saline, 100 µl Microscint 20 was added to each well, and the plates counted on a Topcount at 21°C for 2 minutes per well.
(§4) All data points were performed in triplicate and each 96-well plate also contained 6 determinations of total and non-specific binding.

[2] = target: T2, human wildtype β1-adrenoceptor (Ser49/Gly389) (Homo sapiens, UniProt P08588); test: cell-based; details: Log KD
Procedure: as §3, §4

[3] = target: T2, human wildtype β1-adrenoceptor (Ser49/Gly389); test: 3H-cAMP accumulation, wildtype; format: cell-based; parameters: expressed in transfected cells; details: for Log EC50 Site 2 / EC50: biphasic cAMP response; for EC50: read-out: Log EC50 Site 1 (converted); for Emax: read-out: % isop (% isoprenaline maximal response)
Procedure: (§1) Cells were grown to confluence in clear plastic tissue culture treated 24-well plates and ^3H-cAMP accumulation performed as previously described. Briefly, cells pre-labelled with ^3H-adenine by incubation for 2 hours with 2 µCi/ml ^3H-adenine in serum-free media (0.5 ml per well). The cells were washed, then 1 ml serum-free media containing 1 mM IBMX (3-isobutyl-1-methylxanthine) was added to each well and the cells incubated for 15 minutes. Agonists (in 10 µl serum-free media) were added to each well and the plates incubated for 5 hours in order to maximise the responses. The assay was terminated by adding 50 µl concentrated HCl per well, the plates frozen, thawed and ^3H-cAMP separated from other ^3H-nucleotides by sequential Dowex and alumina column chromatography. […] Where pertussis toxin (PTX) was used, cells were incubated in the 24 well plates with PTX at 100 ng/ml for 24 hours before experimentation.
(§2) The affinities of antagonists (KD values, Table 3) were calculated from the shift of the agonist concentration response curve in the presence of a fixed concentration of antagonist using equation 5: [drawing 5] (5) where DR (dose ratio) is the ratio of the agonist concentration required to stimulate an identical response in the presence and absence of a fixed concentration of antagonist [B].

[4] = target: T3, human β1-adrenoceptor polymorphic variant Gly49/Gly389 (Homo sapiens, UniProt P08588, S49G); test: cell-based; details: Log KD
Procedure: as §3, §4

[5] = target: T1, human β1-adrenoceptor polymorphic variant Ser49/Arg389; test: 3H-cAMP accumulation, Ser49/Arg389; format: cell-based; parameters: expressed in transfected cells; pcDNA3.1); details: for Log EC50 Site 2 / EC50: biphasic cAMP response; for EC50: read-out: Log EC50 Site 1 (converted); for Emax: read-out: % isop (% isoprenaline maximal response)
Procedure: as §1, §2

[6] = target: T3, human β1-adrenoceptor polymorphic variant Gly49/Gly389; test: 3H-cAMP accumulation, Gly49/Gly389; format: cell-based; parameters: expressed in transfected cells; pcDNA3.1); details: for EC50 / Log EC50 Site 2: biphasic cAMP response; for EC50: read-out: Log EC50 Site 1 (converted); for Emax: read-out: % isop (% isoprenaline maximal response)
Procedure: as §1, §2

[7] = test system: ERK1/2 MAPKinase activation; test: Alphascreen Surefire MAPKinase (pERK1/2) assay, positive control; format: cell-based, Chinese Hamster; details: 1 µM, 30 minutes
Procedure: Extracellular-signal-regulated kinases ERK1/2 activation was measured using a Surefire Alphascreen pERK1/2 kit as per manufacturer's instructions. Briefly, cells were grown to confluence in clear plastic tissue culture treated 96-well plates then serum starved by incubation in serum-free media for 24 hours before experimentation. Agonist in 20 µl was added to the well (1∶5 dilution in wells) and incubated for 5–60 minutes (37°C, 5% CO2). Reagents were then removed and 20 µl lysis buffer added to each well. Plates were frozen at −20°C overnight, thawed, and the assay then conducted as per manufacturer's instructions. After 2 hours in the dark, the plates were read on an Envision plate reader using standard Alphascreen settings. 1 µM phorbol ester was used as the positive control.

[8] = test system: endogenous P2y2 receptors; test: 3H-inositol phosphate accumulation, positive controls; format: cell-based, Chinese Hamster; details: 100 µM
Procedure: Cells were grown to confluence in clear plastic tissue culture treated 24-well plates containing ^3H-myo-inositol (4 µCi/ml). Cells were washed then incubated for 30 minutes in 1 ml of serum free media containing 20 mM LiCl (37°C, 5% CO2). Agonists (in 10 µl) were then added and the incubation continued for 1 hour. All reagents were then removed and 1 ml of cold (−20°C) methanol/0.12M HCl (1∶1, v/v) added to each well. […] Total ^3H-inositol phosphate levels were determined by liquid scintillation counting. 100 µM ATP and 100 µM UTP was used as positive controls.

[9] = target: T4, human adenosine A1 receptor (Homo sapiens, UniProt P30542); test: 3H-cAMP accumulation in CHO-A1 cells, pertussis toxin control; format: cell-based; details: 100 ng/ml for 24 hours, CHO cells expressing the human adenosine A1 receptor
T4 construct: expressed in transfected cells
T4 sequence (P30542 1-326): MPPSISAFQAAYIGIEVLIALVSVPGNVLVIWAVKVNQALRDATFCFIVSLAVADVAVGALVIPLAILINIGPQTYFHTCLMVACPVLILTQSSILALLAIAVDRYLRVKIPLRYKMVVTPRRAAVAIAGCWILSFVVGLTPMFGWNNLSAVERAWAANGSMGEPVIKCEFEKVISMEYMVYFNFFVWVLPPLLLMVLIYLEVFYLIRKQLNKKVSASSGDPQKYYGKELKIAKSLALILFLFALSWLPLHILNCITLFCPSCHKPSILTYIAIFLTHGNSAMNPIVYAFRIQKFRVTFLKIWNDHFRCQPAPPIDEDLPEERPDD

[10] = cells expressing Gly49/Gly389 receptor
[11] = cells expressing Ser49/Arg389 β1-receptors
[12] = cells expressing wildtype Ser49/Gly389 receptor
[13] = 3H-cAMP accumulation, main stable WT Ser49/Gly389 cell line (WT original), maximum defined by 10 µM isoprenaline

T2 sequence (P08588 whole entry): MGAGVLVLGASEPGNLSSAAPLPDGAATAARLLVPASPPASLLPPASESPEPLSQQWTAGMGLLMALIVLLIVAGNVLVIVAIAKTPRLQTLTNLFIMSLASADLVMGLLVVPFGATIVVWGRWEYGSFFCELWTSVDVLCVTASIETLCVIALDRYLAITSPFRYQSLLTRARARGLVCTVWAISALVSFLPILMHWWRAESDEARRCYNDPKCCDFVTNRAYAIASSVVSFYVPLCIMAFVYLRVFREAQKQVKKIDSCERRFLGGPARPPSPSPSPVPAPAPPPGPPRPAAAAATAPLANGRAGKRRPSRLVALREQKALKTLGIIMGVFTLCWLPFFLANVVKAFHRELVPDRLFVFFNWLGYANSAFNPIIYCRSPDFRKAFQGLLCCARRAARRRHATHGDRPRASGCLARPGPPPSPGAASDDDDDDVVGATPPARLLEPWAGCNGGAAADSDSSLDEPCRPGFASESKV
T3 sequence (P08588 whole entry S49G): as the sequence (P08588 whole entry) above, with S49G counted along it
T1 sequence (P08588 whole entry G389R): as the sequence (P08588 whole entry) above, with G389R counted along it

`CC(C)(Cc1c[nH]c2ccccc12)NCC(O)COc1ccccc1C#N` (stereo not shown) [Bucindolol] showed a Kd ([1]; competition with 3H-CGP 12177, Ser49/Arg389 transiently transfected populations) of 1.82 nM, a Kd ([1]; competition with 3H-CGP 12177, additional stable Ser49/Arg389 cell line W81) of 0.275 nM and a Kd ([1]; competition with 3H-CGP 12177, additional stable Ser49/Arg389 cell line W93) of 0.646 nM. For the same compound, the Kd ([1]; competition with 3H-CGP 12177, whole cells, main stable CHO cell line Ser49/Arg389) was 0.347 nM, the Kd ([2]; competition with 3H-CGP 12177, WT transiently transfected populations) was 1.32 nM and the Kd ([2]; competition with 3H-CGP 12177, additional stable WT cell line T3) was 1.45 nM. The Kd ([2]; competition with 3H-CGP 12177, additional stable WT cell line T88) was 0.355 nM, the Kd ([2]; competition with 3H-CGP 12177, whole cells, main stable CHO cell line WT (Ser49/Gly389)) was 0.275 nM and the “% isoprenaline” value ([3]; % maximum isoprenaline response for the overall biphasic response, main WT Ser49/Gly389 cell line) was 24.6±4.1%. For the same compound, the “% Site 1” value ([3]; % of the response occurring at site 1, main WT Ser49/Gly389 cell line) was 59.8±2.8%, the “% Site 1” value ([3]; WT cell line T3) was 75.6 ± 4.5% and the “% Site 1” value ([3]; WT cell line T88) was 48.0 ± 4.2%. The “Log EC50 Site 2” value ([3]; WT cell line T3) was -7.09 ± 0.15, the EC50 ([3]; WT cell line T3) was 0.708 nM and the “Log EC50 Site 2” value ([3]; WT cell line T88) was -7.46 ± 0.09. The EC50 ([3]; WT cell line T88) was 0.234 nM, the “Log EC50 Site 2” value ([3]; main WT Ser49/Gly389 cell line) was −7.53±0.05 and the EC50 ([3]; main WT Ser49/Gly389 cell line) was 0.347 nM. The “% isoprenaline” value ([3]; overall biphasic response, WT cell line T3) was 43.4 ± 2.0%, the “% isoprenaline” value ([3]; overall biphasic response, WT cell line T88) was 23.6 ± 2.4% and the Kd ([4]; competition with 3H-CGP 12177, Gly49/Gly389 transiently transfected populations) was 1.58 nM. For the same compound, the Kd ([4]; competition with 3H-CGP 12177, additional stable Gly49/Gly389 cell line V87) was 0.427 nM, the Kd ([4]; competition with 3H-CGP 12177, whole cells, main stable CHO cell line Gly49/Gly389) was 0.339 nM and the “% isoprenaline” value ([5]; % maximum isoprenaline response for the overall biphasic response, main Ser49/Arg389 cell line) was 53.6±1.2%. For the same compound, the “% Site 1” value ([5]; % of the response occurring at site 1, main Ser49/Arg389 cell line) was 80.4±2.6%, the “% Site 1” value ([5]; Ser49/Arg389 Cell line W81) was 47.6 ± 3.3% and the “% Site 1” value ([5]; Ser49/Arg389 Cell line W93) was 51.5 ± 4.0%. For the same compound, the “Log EC50 Site 2” value ([5]; Ser49/Arg389 Cell line W81) was -6.22 ± 0.15, the EC50 ([5]; Ser49/Arg389 Cell line W81) was 0.724 nM and the “Log EC50 Site 2” value ([5]; Ser49/Arg389 Cell line W93) was -7.50 ± 0.07. For the same compound, the EC50 ([5]; Ser49/Arg389 Cell line W93) was 0.589 nM, the “Log EC50 Site 2” value ([5]; main Ser49/Arg389 cell line) was −6.98±0.19 and the EC50 ([5]; main Ser49/Arg389 cell line) was 0.447 nM. For the same compound, the “% isoprenaline” value ([5]; overall biphasic response, Ser49/Arg389 Cell line W81) was 34.8 ± 2.0%, the “% isoprenaline” value ([5]; overall biphasic response, Ser49/Arg389 Cell line W93) was 32.8 ± 1.1% and the “% isoprenaline” value ([6]; % maximum isoprenaline response for the overall biphasic response, main Gly49/Gly389 cell line) was 25.7±0.8%. The “% Site 1” value ([6]; % of the response occurring at site 1, main Gly49/Gly389 cell line) was 51.5±2.4%, the “% Site 1” value ([6]; Gly49/Gly389 Cell line V6) was 54.0 ± 2.7% and the “% Site 1” value ([6]; Gly49/Gly389 Cell line V87) was 69.3 ± 7.5%. For the same compound, the EC50 ([6]; Gly49/Gly389 Cell line V6) was 0.282 nM, the “Log EC50 Site 2” value ([6]; Gly49/Gly389 Cell line V87) was -7.34 ± 0.23 and the EC50 ([6]; Gly49/Gly389 Cell line V87) was 0.309 nM. For the same compound, the “Log EC50 Site 2” value ([6]; main Gly49/Gly389 cell line) was −7.45±0.11, the EC50 ([6]; main Gly49/Gly389 cell line) was 0.417 nM and the “% isoprenaline” value ([6]; overall biphasic response, Gly49/Gly389 Cell line V6) was 27.5 ± 1.0%. For the same compound, the “% isoprenaline” value ([6]; overall biphasic response, Gly49/Gly389 Cell line V87) was 22.8 ± 1.1%.
`CCCCCCCCCCCCCC(=O)O[C@@H]1[C@@H](C)[C@@]2(O)[C@@H](C=C(CO)C[C@]3(O)C(=O)C(C)=C[C@@H]23)[C@@H]2C(C)(C)[C@]12OC(C)=O` [phorbol ester] was tested, and the MAPKinase maximum stimulation ([7]; Gly49/Gly389 receptor cells) was 12.6±3.8 fold over basal, the MAPKinase maximum stimulation ([7]; Ser49/Arg389 receptor cells) was 7.4±1.4 fold over basal and the MAPKinase maximum stimulation ([7]; wildtype receptor cells) was 11.9±1.6 fold over basal.
`Nc1ncnc2c1ncn2[C@@H]1O[C@H](COP(=O)(O)OP(=O)(O)OP(=O)(O)O)[C@@H](O)[C@H]1O` [ATP] was tested, and the “3H-inositol phosphate accumulation response” value [8, 10] was 2.77±0.40 fold over basal, the “3H-inositol phosphate accumulation response” value [8, 11] was 2.96±0.28 fold over basal and the “3H-inositol phosphate accumulation response” value [8, 12] was 2.18±0.17 fold over basal.
`O=c1ccn([C@@H]2O[C@H](COP(=O)(O)OP(=O)(O)OP(=O)(O)O)[C@@H](O)[C@H]2O)c(=O)[nH]1` [UTP] was tested, and the “3H-inositol phosphate accumulation response” value [8, 10] was 2.32±0.29 fold over basal, the “3H-inositol phosphate accumulation response” value [8, 11] was 2.63±0.40 fold over basal and the “3H-inositol phosphate accumulation response” value [8, 12] was 1.87±0.11 fold over basal.
pertussis toxin (PTX) was tested, and the “Effect of pre-incubation on the cimaterol or CGP 12177 3H-cAMP responses” value ([3]; 100 ng/ml for 24 hours, WT receptor) was “no effect”, the “Effect of pre-incubation on the cimaterol or CGP 12177 3H-cAMP responses” value ([5]; 100 ng/ml for 24 hours, Ser49/Arg389 receptor) was “no effect” and the “Effect of pre-incubation on the cimaterol or CGP 12177 3H-cAMP responses” value ([6]; 100 ng/ml for 24 hours, Gly49/Gly389 receptor) was “no effect”. The “Effect of pre-incubation on Gi-coupled inhibition of 3H-cAMP accumulation in response to cyclopentyladenosine (CPA)” value [9] was “completely inhibited”.
For `CNC[C@H](O)c1ccc(O)c(O)c1` [Adrenaline], the “% isop (% isoprenaline maximal response)” value [3, 13] was “full agonists”, the Emax [3] was 96.4 ± 2.1% and the Emax [5] was 91.6 ± 2.2%. The Emax [6] was 95.9 ± 3.2%.
`NC[C@H](O)c1ccc(O)c(O)c1` [Noradrenaline] was tested, and the “% isop (% isoprenaline maximal response)” value [3, 13] was “full agonists”, the Emax [3] was 95.5 ± 2% and the Emax [5] was 96 ± 3%. The Emax [6] was 99.1 ± 3.7%.
`CC(C)NCC(O)COc1ccc(CC(N)=O)cc1` (stereo not shown) [Atenolol] gave an Emax [3, 13] of 0%, an Emax ([5]; 3H-cAMP accumulation, main stable Ser49/Arg389 cell line (original), maximum defined by 10 µM isoprenaline) of 1.3 ± 0.2% and an Emax ([6]; 3H-cAMP accumulation, main stable Gly49/Gly389 cell line (original), maximum defined by 10 µM isoprenaline) of 0%.
